# Reference: ChEMBL document CHEMBL4376820, “Homodimeric Tobramycin Adjuvant Repurposes Novobiocin as an Effective Antibacterial Agent against Gram-Negative Bacteria” (J Med Chem, 2019)
# Legend:
# Enterobacter cloacae [1] = test: Potentiation of novobiocin-induced antibacterial activity against colistin-resistant Enterobacter cloacae 121187 clinical solate assessed as fold reduction in novobiocin MIC incubated for 18 hrs by CLSI protocol based assay relative to novobiocin MIC; format: functional
# Pseudomonas aeruginosa [2] = test: Antibacterial activity against wild type Pseudomonas aeruginosa PAO1 assessed as fractional inhibitory concentration index incubated for 18 hrs in presence of tobramycin by checkerboard assay; format: functional
# Pseudomonas aeruginosa [3] = test: Potentiation of novobiocin-induced antibacterial activity against mexAB-oprM mutant deficient Pseudomonas aeruginosa PAO200 assessed as novobiocin MIC at <= 7.1 uM incubated for 18 hrs by CLSI protocol based assay (reference value: 32 ug/ml); format: functional; conditions: PAO200, 18 h
# Escherichia coli [4] = test: Antibacterial activity against carbapenem-resistant Escherichia coli 107115 clinical isolate harboring mcr-1 gene incubated for 18 hrs by CLSI protocol based assay; format: functional; conditions: Escherichia coli, 107115, 18 h
# Pseudomonas aeruginosa [5] = test: Synergistic antibacterial activity against wild type Pseudomonas aeruginosa PAO1 assessed as potentiation of doxycycline-induced antibacterial effect incubated for 18 hrs by checkerboard assay relative to doxycycline alone; format: functional
# Escherichia coli [6] = test: Potentiation of novobiocin-induced antibacterial activity against wild type Escherichia coli ATCC 25922 assessed as novobiocin MIC at <= 7.1 uM incubated for 18 hrs by CLSI protocol based assay (reference value: 64 ug/ml); format: functional; conditions: ATCC 25922, 18 h
# Escherichia coli [7] = test: Bactericidal activity against Escherichia coli ATCC […] assessed as log reduction in colony forming units per ml at 7.1 uM in LB media after 6 hrs in presence of 50.4 uM novobiocin by time-kill assay; format: functional
# Enterobacter cloacae [8] = test: Antibacterial activity against colistin-resistant Enterobacter cloacae 118568 clinical solate incubated for 18 hrs by CLSI protocol based assay; format: functional; conditions: Enterobacter cloacae, 118568, 18 h
# Erythrocyte = test: Hemolytic activity against porcine erythrocytes assessed as hemoglobin release at 1024 ug/ml incubated for 1 hr by microplate reader analysis; format: ADME, cell-based, Sus scrofa; conditions: pig
# Pseudomonas aeruginosa [9] = test: Synergistic antibacterial activity against wild type Pseudomonas aeruginosa PAO1 assessed as potentiation of levofloxacin-induced antibacterial effect incubated for 18 hrs by checkerboard assay; format: functional, organism-based
# Acinetobacter baumannii [10] = test: Potentiation of novobiocin-induced antibacterial activity against colistin-resistant Acinetobacter baumannii 92247 clinical isolate assessed as novobiocin MIC at <= 7.1 uM incubated for 18 hrs by CLSI protocol based assay (reference value: 4 ug/ml); format: functional; conditions: Acinetobacter baumannii, 92247, 18 h
# Pseudomonas aeruginosa [11] = test: Synergistic antibacterial activity against wild type Pseudomonas aeruginosa PAO1 assessed as potentiation of clindamycin-induced antibacterial effect incubated for 18 hrs by checkerboard assay relative to clindamycin alone; format: functional
# Acinetobacter baumannii [12] = test: Potentiation of novobiocin-induced antibacterial activity against Acinetobacter baumannii 031 clinical isolate assessed as fold reduction in novobiocin MIC incubated for 18 hrs by CLSI protocol based assay relative to novobiocin MIC; format: functional
# [13] = Toxicity in Galleria mellonella larvae MDR Acinetobacter baumannii isolate assessed as mortality at 100 mg/kg measured after 24 hrs relative to control; format: ADME, organism-based; conditions: in vivo, read-out: Activity
# Pseudomonas aeruginosa [14] = test: Synergistic antibacterial activity against wild type Pseudomonas aeruginosa PAO1 assessed as potentiation of novobiocin-induced antibacterial effect incubated for 18 hrs by checkerboard assay; format: functional, organism-based
# Acinetobacter baumannii [15] = test: Antibacterial activity against Acinetobacter baumannii LAC-4 clinical isolate incubated for 18 hrs by CLSI protocol based assay; format: functional; conditions: LAC-4, 18 h
# Pseudomonas aeruginosa [16] = test: Synergistic antibacterial activity against wild type Pseudomonas aeruginosa PAO1 assessed as potentiation of cefotaxime-induced antibacterial effect incubated for 18 hrs by checkerboard assay relative to cefotaxime alone; format: functional
# Escherichia coli [17] = test: Bactericidal activity against Escherichia coli ATCC […] assessed as log reduction in colony forming units per ml at 7.1 uM in LB media after 9 hrs by time-kill assay; format: functional
# Acinetobacter baumannii [18] = test: Antibacterial activity against Acinetobacter baumannii 031 clinical incubated for 18 hrs by CLSI protocol based assay; format: functional; conditions: Acinetobacter baumannii, 031, 18 h
# Pseudomonas aeruginosa [19] = test: Synergistic antibacterial activity against wild type Pseudomonas aeruginosa PAO1 assessed as potentiation of fosfomycin-induced antibacterial effect incubated for 18 hrs by checkerboard assay; format: functional, organism-based
# HEK293 = test: Cytotoxicity against human HEK293 cells at 50 uM incubated for 48 hrs by PrestoBlue dye based fluorescence assay; format: cell-based; conditions: hek293, 48 h
# Escherichia coli [20] = test: Antibacterial activity against colistin-resistant Escherichia coli 94393 clinical isolate harboring mcr-1 gene incubated for 18 hrs by CLSI protocol based assay; format: functional; conditions: Escherichia coli, 94393, 18 h
# Pseudomonas aeruginosa [21] = test: Synergistic antibacterial activity against wild type Pseudomonas aeruginosa PAO1 assessed as potentiation of ciprofloxacin-induced antibacterial effect incubated for 18 hrs by checkerboard assay; format: functional, organism-based
# Acinetobacter baumannii [22] = test: Potentiation of novobiocin-induced antibacterial activity against wild type Acinetobacter baumannii ATCC 17978 assessed as novobiocin MIC at <= 7.1 uM incubated for 18 hrs by CLSI protocol based assay (reference value: 16 ug/ml); format: functional; conditions: ATCC 17978, 18 h
# Enterobacter cloacae [23] = test: Potentiation of novobiocin-induced antibacterial activity against colistin-resistant Enterobacter cloacae 118568 clinical solate assessed as fold reduction in novobiocin MIC incubated for 18 hrs by CLSI protocol based assay relative to novobiocin MIC; format: functional
# Klebsiella pneumoniae [24] = test: Potentiation of novobiocin-induced antibacterial activity against colistin-resistant Klebsiella pneumoniae 113250 clinical isolate assessed as fold reduction in novobiocin MIC incubated for 18 hrs by CLSI protocol based assay relative to novobiocin MIC; format: functional
# Pseudomonas aeruginosa [25] = test: Bactericidal activity against Pseudomonas aeruginosa PAO1 assessed as log reduction in colony forming units per ml at 7.1 uM in LB media after 24 hrs in presence of 50.4 uM novobiocin by time-kill assay; format: functional
# Pseudomonas aeruginosa [26] = test: Antibacterial activity against carbapenem and colistin-resistant Pseudomonas aeruginosa 91433 clinical isolate incubated for 18 hrs by CLSI protocol based assay; format: functional; conditions: Pseudomonas aeruginosa, 91433, 18 h
# Pseudomonas aeruginosa [27] = test: Synergistic antibacterial activity against wild type Pseudomonas aeruginosa PAO1 assessed as potentiation of rifampicin-induced antibacterial effect incubated for 18 hrs by checkerboard assay; format: functional, organism-based
# Pseudomonas aeruginosa [28] = test: Antibacterial activity against mexAB-oprM/mexCD-oprJ/mexEF-oprN/mexJK/mexXY/opmH mutant deficient Pseudomonas aeruginosa PAO750 incubated for 18 hrs by CLSI protocol based assay; format: functional; conditions: PAO750, 18 h
# Acinetobacter baumannii [29] = test: Antibacterial activity against wild type Acinetobacter baumannii ATCC 17978 incubated for 18 hrs by CLSI protocol based assay; format: functional; conditions: ATCC 17978, 18 h
# Pseudomonas aeruginosa [30] = test: Synergistic antibacterial activity against wild type Pseudomonas aeruginosa PAO1 assessed as potentiation of piperacillin-induced antibacterial effect incubated for 18 hrs by checkerboard assay relative to piperacillin alone; format: functional
# Escherichia coli [31] = test: Antibacterial activity against wild type Escherichia coli ATCC 25922 incubated for 18 hrs by CLSI protocol based assay; format: functional; conditions: ATCC 25922, 18 h
# Acinetobacter baumannii [32] = test: Antibacterial activity against Acinetobacter baumannii 027 clinical incubated for 18 hrs by CLSI protocol based assay; format: functional; conditions: Acinetobacter baumannii, 027, 18 h
# Klebsiella pneumoniae [33] = test: Bactericidal activity against Klebsiella pneumoniae 116381 assessed as log reduction in colony forming units per ml at 7.1 in LB media after 24 hrs by time-kill assay; format: functional
structure (smiles),measurement,setting,value
NC[C@H]1O[C@H](O[C@H]2[C@H](OCCCCc3cn(CCCCO[C@@H]4[C@@H](O[C@H]5O[C@H](CO)[C@@H](O)[C@H](N)[C@H]5O)[C@H](N)C[C@H](N)[C@H]4O[C@H]4O[C@H](CN)[C@@H](O)C[C@H]4N)nn3)[C@@H](O[C@H]3O[C@H](CO)[C@@H](O)[C@H](N)[C@H]3O)[C@H](N)C[C@@H]2N)[C@H](N)C[C@@H]1O.O=C(O)C(F)(F)F.O=C(O)C(F)(F)F.O=C(O)C(F)(F)F.O=C(O)C(F)(F)F.O=C(O)C(F)(F)F.O=C(O)C(F)(F)F.O=C(O)C(F)(F)F.O=C(O)C(F)(F)F.O=C(O)C(F)(F)F.O=C(O)C(F)(F)F,Ratio,Enterobacter cloacae [1],8
same,fractional inhibitory concentration index (FICI),Pseudomonas aeruginosa [2],>4
same,MIC,Pseudomonas aeruginosa [3],0.125 µg/mL
same,MIC,Escherichia coli [4],> 128 µg/mL
same,fold change (FC),Pseudomonas aeruginosa [5],4 - 128
same,MIC,Escherichia coli [6],2 µg/mL
same,Activity,Escherichia coli [7],-5 CFU/ml
same,MIC,Enterobacter cloacae [8],> 128 µg/mL
same,Activity,Erythrocyte,Non-Toxic
same,Activity,Pseudomonas aeruginosa [9],Dose-dependent effect
same,MIC,Acinetobacter baumannii [10],0.25 µg/mL
same,fold change (FC),Pseudomonas aeruginosa [11],4 - 128
same,Ratio,Acinetobacter baumannii [12],16
same,mortality at 24 h,[13],100%
same,Activity,Pseudomonas aeruginosa [14],Dose-dependent effect
same,MIC,Acinetobacter baumannii [15],> 128 µg/mL
same,fold change (FC),Pseudomonas aeruginosa [16],4 - 128
same,Activity,Escherichia coli [17],-2 CFU/ml
same,MIC,Acinetobacter baumannii [18],> 128 µg/mL
same,Activity,Pseudomonas aeruginosa [19],Dose-dependent effect
same,Activity,HEK293,Non-Toxic
same,MIC,Escherichia coli [20],> 128 µg/mL
same,Activity,Pseudomonas aeruginosa [21],Dose-dependent effect
same,MIC,Acinetobacter baumannii [22],0.5 µg/mL
same,Ratio,Enterobacter cloacae [23],32
same,Ratio,Klebsiella pneumoniae [24],32
same,Activity,Pseudomonas aeruginosa [25],-9.48 CFU/ml
same,MIC,Pseudomonas aeruginosa [26],> 128 µg/mL
same,Activity,Pseudomonas aeruginosa [27],Dose-dependent effect
same,MIC,Pseudomonas aeruginosa [28],> 128 µg/mL
same,MIC,Acinetobacter baumannii [29],> 128 µg/mL
same,fold change (FC),Pseudomonas aeruginosa [30],4 - 128
same,MIC,Escherichia coli [31],> 128 µg/mL
same,MIC,Acinetobacter baumannii [32],> 128 µg/mL
same,Activity,Klebsiella pneumoniae [33],-8.68 CFU/ml
